What follows are molecules tested against T1, cGAMP binding domain of wild-type (GRR) human STING, residues 155-341 (Homo sapiens, UniProt Q86WV6, H232R) (assay: Increase of stability of STING protein against thermal denaturation, Differential Scanning Fluorimetry (DSF)).
T1 construct: His-TEV-hSTING (WT); TEV protease cleavage site (N); made in house; host or cells: E. coli BL21 DE3
Outline: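 3 µM His-tagged protein with 100 uM compound, 5×SYPRO Orange, 2% DMSO in 20 mM Tris, 150 mM NaCl, pH7.5; 15–95 °C ramp in 0.5 °C steps (15 s/cycle). Tm from Boltzmann fit of the dye melt curve, duplicates averaged, repeated if SD>1.5 °C; ΔTm = Tm with compound minus Tm of protein alone.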

T1 sequence (Q86WV6 with tags, fused parts or gaps H232R): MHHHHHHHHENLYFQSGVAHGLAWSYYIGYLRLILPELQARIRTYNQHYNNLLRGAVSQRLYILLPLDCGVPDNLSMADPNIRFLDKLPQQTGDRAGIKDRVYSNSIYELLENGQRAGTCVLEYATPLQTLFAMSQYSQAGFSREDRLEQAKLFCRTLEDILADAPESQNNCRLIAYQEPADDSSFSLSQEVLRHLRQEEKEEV

| Compound | DSF |
| --- | --- |
| Cc1nc2nn(C)cc2cc1-n1nc(-c2cccc3nn(C[C@H](O)c4ccc(F)c(F)c4)cc23)c(C(C)C)c1C [Example 44, (1R)-1-(3,4-difluorophenyl)-2-[4-(1-{2,6-dimethyl-2H-pyrazolo[3,4-b]pyridin-5-yl}-5-methyl-4-(propan-2-yl)-1H-pyrazol-3-yl)-2H-indazol-2-yl]ethan-1-ol] | 26 K |
| Cc1nc2nn(CCCCN3CCN(C)CC3)cc2cc1-n1nc(-c2cccc3nn(C[C@H](O)c4ccccc4)cc23)c(C(C)C)c1C [Example 45, (1R)-2-[4-(5-methyl-1-{6-methyl-2-[4-(4-methylpiperazin-1-yl)butyl]-2H-pyrazolo[3,4-b]pyridin-5-yl}-4-(propan-2-yl)-1H-pyrazol-3-yl)-2H-indazol-2-yl]-1-phenylethan-1-ol] | 27 K |
| Cc1nc2nn(C)cc2cc1-n1nc(-c2cccc3nn(C[C@H](O)c4ccc(F)cc4)cc23)c(C(C)C)c1C [Example 46, (1R)-2-[4-(1-{2,6-dimethyl-2H-pyrazolo[3,4-b]pyridin-5-yl}-5-methyl-4-(propan-2-yl)-1H-pyrazol-3-yl)-2H-indazol-2-yl]-1-(4-fluorophenyl)ethan-1-ol] | 27 K |
| Cc1c(C(C)C)c(-c2cccc3nn(C[C@H](O)c4ccccc4)cc23)nn1-c1cc2cn(C)nc2nc1C1CCOC1 (stereo partly drawn) [Example 47, (1R)-2-(4-{5-methyl-1-[2-methyl-6-(oxolan-3-yl)-2H-pyrazolo[3,4-b]pyridin-5-yl]-4-(propan-2-yl)-1H-pyrazol-3-yl}-2H-indazol-2-yl)-1-phenylethan-1-ol] | 30 K |
| CCCn1cc2cc(-c3nc(-c4cccc5nn(CC(F)(F)c6ccccc6)cc45)c(C4CC4)n3C)c(C3CC3)nc2n1 [Example 48, 4-(5-cyclopropyl-2-{6-cyclopropyl-2-propyl-2H-pyrazolo[3,4-b]pyridin-5-yl}-1-methyl-1H-imidazol-4-yl)-2-(2,2-difluoro-2-phenylethyl)-2H-indazole] | 31 K |
| Cc1nc2nn(CCCN3CCOCC3)cc2cc1-n1nc(-c2cccc3nn(C[C@H](F)c4ccccc4)cc23)c(C(C)C)c1C [Example 49, 2-[(2R)-2-fluoro-2-phenylethyl]-4-(5-methyl-1-{6-methyl-2-[3-(morpholin-4-yl)propyl]-2H-pyrazolo[3,4-b]pyridin-5-yl}-4-(propan-2-yl)-1H-pyrazol-3-yl)-2H-indazole] | 26 K |
| Cc1c(C(C)C)c(-c2cccc3nn(C[C@H](O)c4ccccc4)cc23)nn1-c1cc2cn(C)nc2[n+]([O-])c1C1CC1 [Example 50, 6-cyclopropyl-5-(3-{2-[(2R)-2-hydroxy-2-phenylethyl]-2H-indazol-4-yl}-5-methyl-4-(propan-2-yl)-1H-pyrazol-1-yl)-2-methyl-2H-pyrazolo[3,4-b]pyridin-7-ium-7-olate] | 26 K |
| Cc1c(C(C)C)c(-c2cccc3nn(C[C@H](O)c4ccccc4)cc23)nn1-c1cc2cn(C)nc2nc1C1(F)CC1 [Example 51, (1R)-2-(4-{1-[6-(1-fluorocyclopropyl)-2-methyl-2H-pyrazolo[3,4-b]pyridin-5-yl]-5-methyl-4-(propan-2-yl)-1H-pyrazol-3-yl}-2H-indazol-2-yl)-1-phenylethan-1-ol] | 26 K |
| CO[C@@H](Cn1cc2c(-c3nn(-c4cc5cn(C)nc5nc4C)c(C)c3C(C)C)cccc2n1)c1ccccc1 [Example 52, 4-(1-{2,6-dimethyl-2H-pyrazolo[3,4-b]pyridin-5-yl}-5-methyl-4-(propan-2-yl)-1H-pyrazol-3-yl)-2-[(2R)-2-methoxy-2-phenylethyl]-2H-indazole] | 25 K |
| Cc1c(C(C)C)c(-c2cccc3nn(C[C@H](O)c4ccccc4)cc23)nn1-c1cc2cn(C)nc2nc1C1CCC1 [Example 53, (1R)-2-[4-(1-{6-cyclobutyl-2-methyl-2H-pyrazolo[3,4-b]pyridin-5-yl}-5-methyl-4-(propan-2-yl)-1H-pyrazol-3-yl)-2H-indazol-2-yl]-1-phenylethan-1-ol] | 30 K |
| Cc1c(C(C)C)c(-c2cccc3nn(C[C@H](O)c4ccccc4)cc23)nn1-c1cc2cn(C)nc2nc1CC1CC1 [Example 54, (1R)-2-(4-{1-[6-(cyclopropylmethyl)-2-methyl-2H-pyrazolo[3,4-b]pyridin-5-yl]-5-methyl-4-(propan-2-yl)-1H-pyrazol-3-yl}-2H-indazol-2-yl)-1-phenylethan-1-ol] | 28 K |
| Cn1cc2cc(-c3nc(-c4cccc5nn(C[C@H](O)c6ccc(O)cc6)cc45)c(C4CC4)n3C)c(C3CC3)nc2n1 [Example 55, 4-[(1R)-2-[4-(5-cyclopropyl-2-{6-cyclopropyl-2-methyl-2H-pyrazolo[3,4-b]pyridin-5-yl}-1-methyl-1H-imidazol-4-yl)-2H-indazol-2-yl]-1-hydroxyethyl]phenol] | 29 K |
| Cc1nc2nn(CC3CC3)cc2cc1-n1nc(-c2cccc3nn(C[C@H](O)c4ccccc4)cc23)c(C(C)C)c1C [Example 56, (1R)-2-(4-{1-[2-(cyclopropylmethyl)-6-methyl-2H-pyrazolo[3,4-b]pyridin-5-yl]-5-methyl-4-(propan-2-yl)-1H-pyrazol-3-yl}-2H-indazol-2-yl)-1-phenylethan-1-ol] | 25 K |
| CC(C)c1c(-c2cccc3nn(C[C@H](O)c4ccccc4)cc23)nc(-c2cc3cn(C)nc3nc2C(F)(F)F)n1C [Example 57, (1R)-2-(4-{1-methyl-2-[2-methyl-6-(trifluoromethyl)-2H-pyrazolo[3,4-b]pyridin-5-yl]-5-(propan-2-yl)-1H-imidazol-4-yl}-2H-indazol-2-yl)-1-phenylethan-1-ol] | 27 K |
| COC(C)c1nc2nn(C)cc2cc1-n1nc(-c2cccc3nn(C[C@H](O)c4ccccc4)cc23)c(C(C)C)c1C (stereo partly drawn) [Example 58, (1R)-2-(4-{1-[6-(1-methoxyethyl)-2-methyl-2H-pyrazolo[3,4-b]pyridin-5-yl]-5-methyl-4-(propan-2-yl)-1H-pyrazol-3-yl}-2H-indazol-2-yl)-1-phenylethan-1-ol] | 28 K |
| CCCc1nc2nn(C)cc2cc1-n1nc(-c2cccc3nn(C[C@H](O)c4ccccc4)cc23)c(C(C)C)c1C [Example 60, (1R)-2-[4-(5-methyl-1-{2-methyl-6-propyl-2H-pyrazolo[3,4-b]pyridin-5-yl}-4-(propan-2-yl)-1H-pyrazol-3-yl)-2H-indazol-2-yl]-1-phenylethan-1-ol] | 28 K |
| Cc1nc2nn(Cc3ncnn3C)cc2cc1-n1nc(-c2cccc3nn(C[C@H](O)c4ccccc4)cc23)c(C(C)C)c1C [Example 62, (1R)-2-[4-(5-methyl-1-{6-methyl-2-[(1-methyl-1H-1,2,4-triazol-5-yl)methyl]-2H-pyrazolo[3,4-b]pyridin-5-yl}-4-(propan-2-yl)-1H-pyrazol-3-yl)-2H-indazol-2-yl]-1-phenylethan-1-ol] | 25 K |
| Cc1nc2nn(C)cc2cc1-n1nc(-c2cccc3nn(C[C@H](OCC4CC4)c4ccccc4)cc23)c(C(C)C)c1C [Example 63, 2-[(2R)-2-(cyclopropylmethoxy)-2-phenylethyl]-4-(1-{2,6-dimethyl-2H-pyrazolo[3,4-b]pyridin-5-yl}-5-methyl-4-(propan-2-yl)-1H-pyrazol-3-yl)-2H-indazole] | 22 K |
| Cc1c(C(C)C)c(-c2cccc3nn(C[C@H](O)c4ccccc4)cc23)nn1-c1cc2cn(C)nc2nc1C(F)F [Example 64, (1R)-2-(4-{1-[6-(difluoromethyl)-2-methyl-2H-pyrazolo[3,4-b]pyridin-5-yl]-5-methyl-4-(propan-2-yl)-1H-pyrazol-3-yl}-2H-indazol-2-yl)-1-phenylethan-1-ol] | 26 K |
| Cc1nc2nn(C)cc2cc1-n1nc(-c2cccc3nn(CCc4ccc(OCCN(C)C)cc4)cc23)c(C(C)C)c1C [Example 65, [2-(4-{2-[4-(1-{2,6-dimethyl-2H-pyrazolo[3,4-b]pyridin-5-yl}-5-methyl-4-(propan-2-yl)-1H-pyrazol-3-yl)-2H-indazol-2-yl]ethyl}phenoxy)ethyl]dimethylamine] | 26 K |
| Cc1nc2nn(C)cc2cc1-n1nc(-c2cccc3nn(C[C@H](OCCCCO)c4ccccc4)cc23)c(C(C)C)c1C [Example 66, 4-[(1R)-2-[4-(1-{2,6-dimethyl-2H-pyrazolo[3,4-b]pyridin-5-yl}-5-methyl-4-(propan-2-yl)-1H-pyrazol-3-yl)-2H-indazol-2-yl]-1-phenylethoxy]butan-1-ol] | 23 K |
| Cc1nc2nn(CC(O)CO)cc2cc1-n1nc(-c2cccc3nn(C[C@H](O)c4ccccc4)cc23)c(C(C)C)c1C (stereo partly drawn) [Example 67, 3-[5-(3-{2-[(2R)-2-hydroxy-2-phenylethyl]-2H-indazol-4-yl}-5-methyl-4-(propan-2-yl)-1H-pyrazol-1-yl)-6-methyl-2H-pyrazolo[3,4-b]pyridin-2-yl]propane-1,2-diol] | 26 K |
| Cn1cc2cc(-c3nc(-c4cccc5nn(C[C@H](O)c6ccc(OCC7CCOCC7)cc6)cc45)c(C4CC4)n3C)c(C3CC3)nc2n1 [Example 68] | 28 K |
| Cn1cc2cc(-c3nc(-c4cccc5nn(C[C@H](O)c6ccc(OC7COC7)cc6)cc45)c(C4CC4)n3C)c(C3CC3)nc2n1 [Example 69, (1R)-2-[4-(5-cyclopropyl-2-{6-cyclopropyl-2-methyl-2H-pyrazolo[3,4-b]pyridin-5-yl}-1-methyl-1H-imidazol-4-yl)-2H-indazol-2-yl]-1-[4-(oxetan-3-yloxy)phenyl]ethan-1-ol] | 29 K |
| Cc1nc2nn(CC(O)CN3CCN(C)CC3)cc2cc1-n1nc(-c2cccc3nn(C[C@H](O)c4ccccc4)cc23)c(C(C)C)c1C (stereo partly drawn) [Example 70, 1-[5-(3-{2-[(2R)-2-hydroxy-2-phenylethyl]-2H-indazol-4-yl}-5-methyl-4-(propan-2-yl)-1H-pyrazol-1-yl)-6-methyl-2H-pyrazolo[3,4-b]pyridin-2-yl]-3-(4-methylpiperazin-1-yl)propan-2-ol] | 24 K |
